HELM strings list units from the 5' end as sugar, base in round brackets, then linkage (d deoxyribose, r ribose, m 2'-O-methyl, p phosphodiester). Strings are as the collection lists them; they lack the last nucleoside at the 3' end of the tested compound. [moe] = 2'-O-(2-methoxyethyl) (MOE); [sp] = phosphorothioate linkage; [m5C] = 5-methylcytosine

Experimental findings from the OligoGym collection are described below.

The target of this data set is ATXN3. Nature of the data set: mouse, dose not given. The following applies: ASO.
With “RNA1{[moe](T)[sp].[moe](A)p.[moe](A)p.[moe](T)p.[moe](T)[sp].d([m5C])[sp].d(T)[sp].d(T)[sp].d(G)[sp].d([m5C])[sp].d(T)[sp].d(T)[sp].d([m5C])[sp].d(A)[sp].d(A)[sp].[moe]([m5C])p.[moe]([m5C])p.[moe](A)[sp].[moe](T)}$$$$ (last 3' nucleoside missing)”, the 3 h FOB score was 1.38 score 0-7.

As to “RNA1{[moe](T)[sp].[moe](G)[sp].[moe](G)p.[moe]([m5C])p.[moe](A)[sp].d([m5C])[sp].d(A)[sp].d(T)[sp].d(T)[sp].d(T)[sp].d(T)[sp].d(T)[sp].d(T)[sp].d(A)[sp].d(T)[sp].[moe](A)p.[moe](G)p.[moe](A)[sp].[moe](G)}$$$$ (last 3' nucleoside missing)”, the 3 h FOB score worked out at 3.25 score 0-7.

The substance “RNA1{[moe](T)[sp].[moe](G)[sp].[moe](T)p.[moe](T)p.[moe](A)[sp].d(A)[sp].d(T)[sp].d(A)[sp].d([m5C])[sp].d(T)[sp].d(T)[sp].d(T)[sp].d(T)[sp].d(T)[sp].d([m5C])[sp].[moe]([m5C])p.[moe](A)p.[moe](G)[sp].[moe]([m5C])}$$$$ (last 3' nucleoside missing)” returned a 3 h FOB score of 1 score 0-7.

“RNA1{[moe](T)[sp].[moe](G)[sp].[moe]([m5C])p.[moe](T)p.[moe]([m5C])[sp].d(A)[sp].d(T)[sp].d(T)[sp].d(T)[sp].d(A)[sp].d(T)[sp].d(T)[sp].d([m5C])[sp].d(T)[sp].d([m5C])[sp].[moe](A)p.[moe](A)p.[moe](G)[sp].[moe](T)}$$$$ (last 3' nucleoside missing)”: the 3 h FOB score was 1 score 0-7.

Substance “RNA1{[moe](T)[sp].[moe](G)p.[moe](A)[sp].[moe](G)[sp].[moe]([m5C])[sp].d([m5C])[sp].d(A)[sp].d(A)[sp].d(T)[sp].d(A)[sp].d(T)[sp].d(T)[sp].d(T)[sp].d(A)[sp].d(T)[sp].[moe](A)[sp].[moe](G)p.[moe](G)[sp].[moe](T)}$$$$ (last 3' nucleoside missing)” yielded a 3 h FOB score of 4 score 0-7.

In turn, “RNA1{[moe](T)[sp].[moe](G)p.[moe](G)[sp].[moe]([m5C])[sp].[moe](A)[sp].d([m5C])[sp].d(A)[sp].d(T)[sp].d(T)[sp].d(T)[sp].d(T)[sp].d(T)[sp].d(T)[sp].d(A)[sp].d(T)[sp].[moe](A)[sp].[moe](G)p.[moe](A)[sp].[moe](G)}$$$$ (last 3' nucleoside missing)” returned a 3 h FOB score of 6 score 0-7.

“RNA1{[moe](T)[sp].[moe](G)p.[moe](G)p.[moe](A)p.[moe](A)[sp].d([m5C])[sp].d(T)[sp].d(A)[sp].d([m5C])[sp].d([m5C])[sp].d(T)[sp].d(T)[sp].d(G)[sp].d([m5C])[sp].d(A)[sp].[moe](T)p.[moe](A)p.[moe]([m5C])[sp].[moe](T)}$$$$ (last 3' nucleoside missing)” yielded a 3 h FOB score of 5.38 score 0-7.

The substance “RNA1{[moe](T)[sp].[moe](G)p.[moe](G)p.[moe](T)p.[moe](T)[sp].d(T)[sp].d(T)[sp].d([m5C])[sp].d(T)[sp].d([m5C])[sp].d(A)[sp].d(T)[sp].d(T)[sp].d(T)[sp].d(T)[sp].[moe](T)p.[moe](A)p.[moe](T)[sp].[moe](A)}$$$$ (last 3' nucleoside missing)” had a 3 h FOB score of 0 score 0-7.

“RNA1{[moe](T)[sp].[moe](G)p.[moe](G)p.[moe]([m5C])p.[moe](A)p.[moe]([m5C])p.d(A)[sp].d(T)[sp].d(T)[sp].d(T)[sp].d(T)[sp].d(T)[sp].d(T)[sp].d(A)[sp].d(T)[sp].d(A)[sp].[moe](G)p.[moe](A)[sp].[moe](G)}$$$$ (last 3' nucleoside missing)” came in with a 3 h FOB score of 2.75 score 0-7.

Consider “RNA1{[moe](T)[sp].[moe](G)p.[moe](G)p.[moe]([m5C])p.[moe](A)p.d([m5C])[sp].d(A)[sp].d(T)[sp].d(T)[sp].d(T)[sp].d(T)[sp].d(T)[sp].d(T)[sp].d(A)[sp].d(T)[sp].[moe](A)p.[moe](G)p.[moe](A)[sp].[moe](G)}$$$$ (last 3' nucleoside missing)”, for which the 3 h FOB score is 2.5 score 0-7.

With “RNA1{[moe](T)[sp].[moe](G)p.[moe](T)p.[moe](A)p.[moe]([m5C])[sp].d(A)[sp].d([m5C])[sp].d(T)[sp].d(T)[sp].d(T)[sp].d(T)[sp].d(A)[sp].d([m5C])[sp].d(A)[sp].d(T)[sp].[moe](T)p.[moe]([m5C])p.[moe]([m5C])[sp].[moe]([m5C])}$$$$ (last 3' nucleoside missing)”, the 3 h FOB score was 1 score 0-7.

Substance “RNA1{[moe](T)[sp].[moe](G)p.[moe](T)p.[moe](T)p.[moe](A)[sp].d(A)[sp].d(T)[sp].d(A)[sp].d([m5C])[sp].d(T)[sp].d(T)[sp].d(T)[sp].d(T)[sp].d(T)[sp].d([m5C])[sp].[moe]([m5C])p.[moe](A)p.[moe](G)[sp].[moe]([m5C])}$$$$ (last 3' nucleoside missing)” showed a 3 h FOB score of 0 score 0-7.

As for “RNA1{[moe](T)[sp].[moe](G)p.[moe](T)p.[moe](T)p.[moe](A)p.d(A)[sp].d(T)[sp].d(A)[sp].d([m5C])[sp].d(T)[sp].d(T)[sp].d(T)[sp].d(T)[sp].d(T)[sp].d([m5C])[sp].[moe]([m5C])p.[moe](A)p.[moe](G)[sp].[moe]([m5C])}$$$$ (last 3' nucleoside missing)”, the 3 h FOB score was determined as 1 score 0-7.

“RNA1{[moe](T)[sp].[moe](G)p.[moe](T)p.[moe](T)p.[moe]([m5C])[sp].d(A)[sp].d(T)[sp].d(A)[sp].d(T)[sp].d([m5C])[sp].d([m5C])[sp].d(T)[sp].d(T)[sp].d(T)[sp].d(A)[sp].[moe](A)p.[moe]([m5C])p.[moe]([m5C])[sp].[moe]([m5C])}$$$$ (last 3' nucleoside missing)” showed a 3 h FOB score of 0 score 0-7.

As for “RNA1{[moe](T)[sp].[moe](G)p.[moe]([m5C])p.[moe](A)p.[moe]([m5C])[sp].d(A)[sp].d([m5C])[sp].d(T)[sp].d(T)[sp].d(T)[sp].d([m5C])[sp].d([m5C])[sp].d(T)[sp].d([m5C])[sp].d([m5C])[sp].[moe](T)p.[moe]([m5C])p.[moe](A)[sp].[moe](A)}$$$$ (last 3' nucleoside missing)”, the 3 h FOB score was found to be 0.5 score 0-7.

Consider “RNA1{[moe](T)[sp].[moe](G)p.[moe]([m5C])p.[moe](T)p.[moe](T)[sp].d(T)[sp].d(T)[sp].d([m5C])[sp].d(A)[sp].d(T)[sp].d(A)[sp].d([m5C])[sp].d([m5C])[sp].d(A)[sp].d(G)[sp].[moe](G)p.[moe](T)p.[moe]([m5C])[sp].[moe](T)}$$$$ (last 3' nucleoside missing)”, for which the 3 h FOB score came out at 0.25 score 0-7.

The substance “RNA1{[moe](T)[sp].[moe](G)p.[moe]([m5C])p.[moe](T)p.[moe](T)p.d(T)[sp].d(T)[sp].d([m5C])[sp].d(A)[sp].d(T)[sp].d(A)[sp].d([m5C])[sp].d([m5C])[sp].d(A)[sp].d(G)[sp].[moe](G)p.[moe](T)p.[moe]([m5C])[sp].[moe](T)}$$$$ (last 3' nucleoside missing)” gave a 3 h FOB score of 1.25 score 0-7.

“RNA1{[moe](T)[sp].[moe](G)p.[moe]([m5C])p.[moe](T)p.[moe]([m5C])[sp].d(A)[sp].d(T)[sp].d(T)[sp].d(T)[sp].d(A)[sp].d(T)[sp].d(T)[sp].d([m5C])[sp].d(T)[sp].d([m5C])[sp].[moe](A)p.[moe](A)p.[moe](G)[sp].[moe](T)}$$$$ (last 3' nucleoside missing)”: the 3 h FOB score amounted to 0 score 0-7.

On to “RNA1{[moe](T)[sp].[moe](G)p.[moe]([m5C])p.[moe](T)p.[moe]([m5C])p.[moe](A)p.d(T)[sp].d(T)[sp].d(T)[sp].d(A)[sp].d(T)[sp].d(T)[sp].d([m5C])[sp].d(T)[sp].d([m5C])[sp].d(A)[sp].[moe](A)p.[moe](G)[sp].[moe](T)}$$$$ (last 3' nucleoside missing)”, for which the 3 h FOB score amounted to 0 score 0-7.

The substance “RNA1{[moe](T)[sp].[moe](G)p.[moe]([m5C])p.[moe](T)p.[moe]([m5C])p.d(A)[sp].d(T)[sp].d(T)[sp].d(T)[sp].d(A)[sp].d(T)[sp].d(T)[sp].d([m5C])[sp].d(T)[sp].d([m5C])[sp].[moe](A)p.[moe](A)p.[moe](G)[sp].[moe](T)}$$$$ (last 3' nucleoside missing)” displayed a 3 h FOB score of 1 score 0-7.

“RNA1{[moe](T)[sp].[moe](T)p.[moe](T)p.[moe]([m5C])p.[moe](A)p.d(T)[sp].d(G)[sp].d(T)[sp].d(T)[sp].d([m5C])[sp].d([m5C])[sp].d(A)[sp].d(G)[sp].d(A)[sp].d(T)[sp].[moe]([m5C])p.[moe](A)p.[moe]([m5C])[sp].[moe]([m5C])}$$$$ (last 3' nucleoside missing)” registered a 3 h FOB score of 1 score 0-7.

“RNA1{[moe](T)[sp].[moe]([m5C])p.[moe](A)[sp].[moe]([m5C])[sp].[moe](A)[sp].d(A)[sp].d(T)[sp].d(G)[sp].d(A)[sp].d([m5C])[sp].d([m5C])[sp].d([m5C])[sp].d(T)[sp].d(T)[sp].d(T)[sp].[moe](T)[sp].[moe]([m5C])p.[moe](T)[sp].[moe](T)}$$$$ (last 3' nucleoside missing)” yielded a 3 h FOB score of 1.25 score 0-7.

As for “RNA1{[moe]([m5C])[sp].[moe](A)p.[moe](A)p.[moe](T)p.[moe](A)[sp].d(T)[sp].d(T)[sp].d(T)[sp].d(A)[sp].d(T)[sp].d(A)[sp].d(G)[sp].d(G)[sp].d(T)[sp].d(G)[sp].[moe]([m5C])p.[moe](T)p.[moe](G)[sp].[moe]([m5C])}$$$$ (last 3' nucleoside missing)”, the 3 h FOB score was 4.5 score 0-7.

The substance “RNA1{[moe]([m5C])[sp].[moe](A)p.[moe](A)p.[moe](T)p.[moe](A)p.d(T)[sp].d(T)[sp].d(T)[sp].d(A)[sp].d(T)[sp].d(A)[sp].d(G)[sp].d(G)[sp].d(T)[sp].d(G)[sp].[moe]([m5C])p.[moe](T)p.[moe](G)[sp].[moe]([m5C])}$$$$ (last 3' nucleoside missing)” yielded a 3 h FOB score of 4 score 0-7.

Take “RNA1{[moe]([m5C])[sp].[moe](A)p.[moe](G)p.[moe]([m5C])p.[moe](A)p.[moe]([m5C])p.d([m5C])[sp].d(A)[sp].d(T)[sp].d(A)[sp].d(T)[sp].d(A)[sp].d(T)[sp].d(A)[sp].d(T)[sp].d([m5C])[sp].[moe](T)p.[moe]([m5C])[sp].[moe](A)}$$$$ (last 3' nucleoside missing)”: the 3 h FOB score amounted to 0.625 score 0-7.
